Assay results taken from patent publication US6136845A (The Texas A&M University System, priority 1998, dated 2000).

What was measured:
[1] = tested on: hepatic CYP1A1-dependent EROD activity; assay: Hepatic EROD activity in DMBA-treated rats; conditions: 0.4 mg/kg/day each
Procedure: (§1) Female virgin Sprague-Dawley rats were obtained from Harlan (Houston) and were allowed to acclimate for 10 days, allowed access to food and water ad libitum, and maintained on a 12 h light/dark schedule. Mammary tumors were induced in 50±3 day old-rats by administering a single gavage dose of 20 mg DMBA in 0.5 ml corn oil. […] Tumor sizes were measured with calipers, and volumes were calculated by formula (length×width×depth)/6π and are expressed as percent control. One week after their last injection, rats were euthanized by asphyxiation. All tumors were removed, weighed, and sectioned. One portion was frozen in liquid nitrogen for PCR analysis; one portion was placed in 10% formalin for histopathological analysis; and the majority was immediately homogenized for the preparation of microsomal and cytosolic fractions. Livers were perfused and weighed, and cytosol and microsomes were prepared as previously described.

[2] = Body and organ weights (Examples 4 and 5)
Procedure: (§3) Methods: Rats were ovariectomized at 97 days of age, and treatments began at 117 days of age. […] Rats were euthanized on day 21.
For the control vehicle and the MCDF vehicle ethanol was added (5% v/v) and then evaporated away.

uterine peroxidase [3] = assay: Uterine peroxidase activity in ovariectomized rats (Example 6, Table 6); format: in vivo, Sprague-Dawley rat; conditions: tamoxifen 0.4, 6-MCDF 0.8 mg/kg/day oral, 20 days
Description: (§2) Rats were euthanized on day 21.

CYP1A1 [4] = conditions: cited from earlier work
uterine cytosolic PR = assay: Uterine cytosolic PR levels in ovariectomized rats (Example 4); format: in vivo, Sprague-Dawley rat; conditions: 0.4 mg/kg/day each oral, 20 days
Description: as §2

uterus [5] = assay: Uterine wet weight in ovariectomized rats (Example 4); format: in vivo, Sprague-Dawley rat; conditions: 0.4 mg/kg/day each oral, 20 days
Description: as §3

uterine peroxidase [6] = assay: Uterine peroxidase assay in ovariectomized rats (Example 4); format: in vivo, Sprague-Dawley rat; conditions: 0.4 mg/kg/day each oral, 20 days
Description: as §2

mammary tumor = conditions: cited from earlier work
Ah receptor = conditions: result in words; cited from earlier work
PR = conditions: 21 to 25 day-old female Sprague-Dawley rat uterus; cited from earlier work
[7] = tested on: uterine progesterone receptor; assay: Uterine progesterone receptor in ovariectomized rats (Example 6, Table 6); format: in vivo, Sprague-Dawley rat; conditions: tamoxifen 0.4, 6-MCDF 0.8 mg/kg/day oral, 20 days
Description: as §2

uterus [8] = assay: Uterine wet weight in ovariectomized rats (Example 6, Table 6); format: in vivo, Sprague-Dawley rat; conditions: tamoxifen 0.4, 6-MCDF 0.8 mg/kg/day oral, 20 days
Description: as §2

[9] = Body and organ weights in DMBA-treated rats
Procedure: as §1

CYP1A1 [10] = conditions: result in words; cited from earlier work
rat uterus = conditions: cited from earlier work
mammary tumors = assay: DMBA-induced rat mammary tumor model, tumor volume and weight; format: in vivo, Sprague-Dawley rat; conditions: 20 days
Procedure: as §1, with “One week after their last injection, rats were euthanized by asphyxiation.” left out

ER = conditions: 21 to 25 day-old female Sprague-Dawley rat uterus; cited from earlier work
[11] = cited from earlier work
liver = conditions: result in words; cited from earlier work
[12] = Body and organ weights (Example 6, Table 7)
Procedure: For Table 7 and FIGS. 3 and 3B, exact aged virgin female Sprague-Dawley rats were dosed on day 55 in the afternoon with 20 mg/rat 7,12-dimethylbenz[a]anthacene in a volume of 0.5 ml/rat corn oil (rats weigh approximately 165 g, resulting in 120 mg/kg DMBA and 3 ml/kg corn oil).

femurs = assay: Bone effects in ovariectomized rats (femur weight and length); format: in vivo, Sprague-Dawley rat; conditions: tamoxifen 0.4, 6-MCDF 0.8 mg/kg/day oral, 20 days
Procedure: The ovariectomized rat is used as a model for osteoporosis.
Rats were euthanized on day 21. After uteri were excised and processed, both left and right femurs were excised and the length measured with calipers. […] Wet weight was measured after residual connective tissue was stripped away. Dry weight was measured after the bones were dried for 12 ours at 130° C.

[13] = each drug 0.4 mg/kg/day by gavage, DMBA rats

## Cc1cc(Cl)cc2c1oc1cc(Cl)cc(Cl)c12 [6-MCDF, 6-methyl-1,3,8-trichlorodibenzofuran]
[1]; 20 days, control 118 ± 40
  EROD activity: 140 ± 32 pmol/mg/min
[1]; result in words
  induction of hepatic EROD activity: did not induce
[2]; 0.4 mg/kg/day oral, 20 days, ovariectomized rats, result in words
  splenic wet weight: slight but significant increase
[2]; Table 5, baseline, control 273.1 ± 8.1
  Rat weight at start of treatments: 274.7 ± 7.0 g
[2]; Table 5, control 0.247 ± 0.007
  Spleen wet weight (% body wt): 0.298 ± 0.015 % body wt
[2]; Table 5, control 0.318 ± 0.010
  kidney weight (% body wt): 0.332 ± .004 % body wt
[2]; Table 5, control 0.319 ± 0.006
  Heart weight (% body wt): 0.344 ± 0.014 % body wt
[2]; Table 5, control 0.72O ± 0.012
  Spleen wet weight: 0.887 ± 0.043 g
[2]; Table 5, control 0.933 ± 0.038
  Kidney weight: 0.991 ± 0.026 g
[2]; Table 5, control 0.935 ± 0.039
  Heart weight: 1.024 ± 0.037 g
[2]; Table 5, control 4.06 ± 0.23
  Liver weight (% body wt): 4.37 ± 0.26 % body wt
[2]; Table 5, control 11.88 ± 0.78
  Liver weight: 13.04 ± 0.87 g
[2]; Table 5, control 293.2 ± 10.9
  Rat weight prior to euthanasia: 298.3 ± 5.0 g
Uterine peroxidase [3]; per g uterus
  Uterine Peroxidase Activity (Absorbance/g uterus): 0.88 ± 0.01 Fold Increase over control
Uterine peroxidase [3]; per mg protein
  Uterine Peroxidase Activity (Absorbance/mg protein): 0.99 ± 0.01 Fold Increase over control
Uterine peroxidase [3]; per uterus
  Uterine Peroxidase Activity (Absorbance/uterus): 0.57 ± 0.01 Fold Increase over control
CYP1A1 [4]; less potent than TCDD, same animals
  potency as inducer of hepatic CYP1A1 relative to TCDD (times less potent): > 157,000 times
CYP1A1 [4]; result in words
  induction of CYP1A1: weak inducer of CYP1A1
Uterine cytosolic PR; control 308 ± 142
  Uterine cytosolic PR levels (fmol/mg protein): 338 ± 31 fmol/mg protein
Uterine cytosolic PR; control 1100 ± 508
  Uterine cytosolic PR levels (fmol/uterus): 1925 ± 177 fmol/uterus
Uterine cytosolic PR; control 8368 ± 3868
  Uterine cytosolic PR levels (fmol/g uterus): 10693 ± 986 fmol/g uterus
Uterus [5]; control 0.045 ± 0.002
  Uterine Wet Weight (% body wt): 0.060 ± 0.006 % body wt
Uterus [5]; control 0.131 ± 0.006
  Uterine Wet Weight: 0.180 ± 0.019 g
Uterine peroxidase [6]; per g uterus
  Uterine Peroxidase Assay (Abs/g uterus): 1.14 ± 0.02 Fold Increase over Control
Uterine peroxidase [6]; per mg protein
  Uterine Peroxidase Assay (Abs/mg protein): 1.05 ± 0.02 Fold Increase over Control
Uterine peroxidase [6]; per uterus
  Uterine Peroxidase Assay (Abs/uterus): 1.56 ± 0.03 Fold Increase over Control
Mammary tumor; 5 mg/kg/wk
  growth inhibition: > 50%
Mammary tumor; 5, 10 or 25 mg/kg/wk, result in words
  mammary tumor growth: significantly inhibited
Ah receptor
  binding to the Ah receptor: bound to the Ah receptor
PR
  nuclear and cytosolic progesterone receptor (PR) binding: dose-dependent decrease
[7]; control 198 ± 15
  Uterine Progesterone Receptor (fmol/mg protein): 152.9 ± 35 fmol/mg protein
[7]; control 765 ± 69
  Uterine Progesterone Receptor (fmol/uterus): 441.5 ± 100 fmol/uterus
[7]; control 4462 ± 343
  Uterine Progesterone Receptor (fmol/g uterus): 3985 ± 907 fmol/g uterus
Uterus [8]; control 0.0583 ± 0.0055
  Uterine wet weight (% body weight): 0.0454 % body weight
Uterus [8]; control 0.171 ± 0.15
  Uterine wet weight: 0.131 g
[9]; 0.4 mg/kg/day each, 20 days, control 0.212 ± 0.017
  Uterine Wt.: 0.230 ± 0.037 % BW
[9]; 0.4 mg/kg/day each, 20 days, control 0.257 ± .022
  Spleen Wt.: 0.255 ± 0.017 % BW
[9]; 0.4 mg/kg/day each, 20 days, control 0.349 ± 0.007
  Kidney weight: 0.361 ± 0.016 % BW
[9]; 0.4 mg/kg/day each, 20 days, control 3.13 ± 0.12
  Liver weight: 3.49 ± 0.16 % BW
[9]; 0.4 mg/kg/day each, 20 days, control 250 ± 5
  Final Body Weight: 247 ± 4 g
[9]; rat, in vivo
  Heart weight: 0.405 ± 0.10 % BW
CYP1A1 [10]
  induction of hepatic CYP1A1-dependent activity: not accompanied by any significant changes
Rat uterus; rat uterus
  E2-induced hypertrophy, peroxidase activity, cytosolic ER and PR binding, EGF receptor and c-fos mRNA levels: inhibited
  effect on TCDD-induced antiestrogenic activity: did not inhibit
Rat uterus; result in words
  antiestrogenicity in the rat uterus: antiestrogen in the rat uterus
Mammary tumors; 0.4 mg/kg/day each, control 3.82 ± 1.18
  Tumor Weight: 1.68 ± 0.53 g
Mammary tumors; 0.4 mg/kg/day each, control 100 ± 27.7
  Tumor Wt (% Control): 43.9 ± 12.8 % Control
Mammary tumors; 0.4 mg/kg/day each, control 100 ± 31.5
  Final Tumor Volume (% Control): 33.6 ± 11.2 % Control
Mammary tumors; 0.4 mg/kg/day each, control 2734 ± 956
  Final Tumor Volume: 918 ± 305 mm^3
Mammary tumors; [13]
  % Inhibition tumor volume: 66.4%
  % Inhibition tumor weight: NS decrease
ER
  nuclear and cytosolic ER binding: dose-dependent decrease
[11]; co-treatment with TCDD
  effect on TCDD induced toxic responses: inhibiter TCDD induced toxic responses
[11]; result in words
  toxicity: minimal toxicity
liver
  liver morphology: not accompanied by any significant changes
  liver/body weight ratios: not accompanied by any significant changes
[12]; Table 7, baseline, control 255 ± 3
  Rat weight at start of treatments: 257 ± 4 g
[12]; Table 7, control 0.289 ± 0.018
  Spleen weight (% body weight): 0.265 ± 0.014 % body weight
[12]; Table 7, control 0.334 ± 0.010
  Kidney weight (% body weight): 0.352 ± 0.015 % body weight
[12]; Table 7, control 0.360 ± 0.010
  Heart weight (% body weight): 0.356 ± 0.012 % body weight
[12]; Table 7, control 295 ± 11
  Rat weight prior to euthanasia: 289 ± 7 g
femurs; control 0.180 ± 0.005
  Dry bone weight: 0.183 ± 0.003 % body weight
femurs; control 0.347 ± 0.009
  Wet bone weight: 0.341 ± 0.008 % body weight
femurs; control 12.1 ± 0.4
  Bone length index: 12.17 ± 0.3 mm/body weight × 100
